Key:
[1] = tested on: U-CH1 chordoma cell line; assay: Cell viability assay (alamarBlue, 72 h), U-CH1; format: cell-based, human; conditions: n = 4, 72 h
Procedure, shortened: (§1)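 Cells grown in 4:1 IMDM:RPMI with 10% FBS on gel-coated flasks, dosed in quadruplicate 24 h after seeding in 384-well plates.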

[2] = tested on: U-CH2 chordoma cell line; assay: Cell viability assay (alamarBlue, 72 h), U-CH2; format: cell-based, human; conditions: n = 4, 72 h
Procedure, shortened: as §1

[3] = tested on: CH22 patient-derived chordoma cell line; assay: Cell viability assay (alamarBlue, 72 h), CH22; format: cell-based, human; conditions: n = 4, 72 h
Protocol: (§2) Chordoma cell lines were cultured as described previously[10],[12],[33],[34]. Briefly, U-CH1 and U-CH2 cell lines were cultured in 4:1 IMDM:RPMI medium supplemented with 10% fetal bovine serum (FBS) and 1% penicillin/streptomycin in gel-coated flasks. […] CH22, UM-Chor1, U-CH12, and U-CH7 cell lines were cultured in RPMI medium supplemented with 10% FBS and 1% penicillin/streptomycin. The cell lines all undergo regular mycoplasma screening.
(§3) Cells were seeded in 384 well plates and were treated with test compound in quadruplicate 24 h after plating. Cell viability was assessed at 72 h using alamarBlue (ThermoFisher, USA). […] IC50 values were determined by four-parameter nonlinear regression analyses using GraphPad Prism™ version 8 software (San Diego, CA).

[4] = tested on: UM-Chor1 patient-derived chordoma cell line; assay: Cell viability assay (alamarBlue, 72 h), UM-Chor1; format: cell-based, human; conditions: n = 4, 72 h
Protocol: as §2, §3

[5] = tested on: U-CH12 patient-derived chordoma cell line; assay: Cell viability assay (alamarBlue, 72 h), U-CH12; format: cell-based, human; conditions: n = 4, 72 h
Protocol: as §2, §3

[6] = tested on: U-CH7 patient-derived chordoma cell line; assay: Cell viability assay (alamarBlue, 72 h), U-CH7; format: cell-based, human; conditions: n = 4, 72 h
Protocol: as §2, §3

[7] = tested on: WS1 human fibroblast cell line; assay: Cell viability assay, WS1 toxicity control; format: cell-based; conditions: n = 4, nonspecific toxicity control
Protocol: as §3

[8] = tested on: HL60 cells; assay: AsedaSciences SYSTEMETRIC Cell Health Screen (flow cytometry toxicity profiling); conditions: for CC: Cell Cycle score / CM: Cell morphology score / CMI: Cell membrane integrity score / GSH: Glutathione score / MMP: Mitochondrial membrane depolarization score / NMI1: Nuclear membrane integrity 1 score / NMI2: Nuclear membrane integrity 2 score / ROS: Reactive superoxide species score / CHI: Cell Health Index: HL60, 4 h, 5 nM–100 µM; for CC: Cell Cycle score / CM: Cell morphology score / CMI: Cell membrane integrity score / GSH: Glutathione score / MMP: Mitochondrial membrane depolarization score / NMI1: Nuclear membrane integrity 1 score / NMI2: Nuclear membrane integrity 2 score / ROS: Reactive superoxide species score: probability 0–1, n = 2; for CHI: Cell Health Index: probability (0–1) of high-risk class, n = 2
Procedure, shortened: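 HL60 cells (100,000 per well) exposed 4 h at 37 °C, 5% CO2 to 10-step 3× dilutions (5 nM–100 µM), in duplicate. Cells then stained with mitochondrial and cell-stress reporter dyes and read by ungated flow cytometry over twelve parameters. Cell Health Index and eight endpoint scores come from an ML classifier trained on 300 high/low-risk compounds.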

[9] = molecular target: EGFR (Homo sapiens, UniProt P00533); assay: ProQinase in-cell EGFR assay (EGFR phosphorylation in A431 cells); format: cell-based; design: This cell line endogenously expresses a high level of EGFR; endogenous in cells; host or cells: A431; conditions: ProQinase in-cell EGFR assay, A431 cells, n = 1
Source text: In addition, we ran an EGFR in-cell target engagement assay, measuring in-cell EGFR phosphorylation, using the human epidermoid carcinoma cell line A431. This cell line endogenously expresses a high level of EGFR, and stimulation of these cells with human epidermal growth factor (EGF) results in receptor tyrosine autophosphorylation.

[10] = SYSTEMETRIC Cell Health Screen, assay n=2

Chain of EGFR (P00533 25-1210): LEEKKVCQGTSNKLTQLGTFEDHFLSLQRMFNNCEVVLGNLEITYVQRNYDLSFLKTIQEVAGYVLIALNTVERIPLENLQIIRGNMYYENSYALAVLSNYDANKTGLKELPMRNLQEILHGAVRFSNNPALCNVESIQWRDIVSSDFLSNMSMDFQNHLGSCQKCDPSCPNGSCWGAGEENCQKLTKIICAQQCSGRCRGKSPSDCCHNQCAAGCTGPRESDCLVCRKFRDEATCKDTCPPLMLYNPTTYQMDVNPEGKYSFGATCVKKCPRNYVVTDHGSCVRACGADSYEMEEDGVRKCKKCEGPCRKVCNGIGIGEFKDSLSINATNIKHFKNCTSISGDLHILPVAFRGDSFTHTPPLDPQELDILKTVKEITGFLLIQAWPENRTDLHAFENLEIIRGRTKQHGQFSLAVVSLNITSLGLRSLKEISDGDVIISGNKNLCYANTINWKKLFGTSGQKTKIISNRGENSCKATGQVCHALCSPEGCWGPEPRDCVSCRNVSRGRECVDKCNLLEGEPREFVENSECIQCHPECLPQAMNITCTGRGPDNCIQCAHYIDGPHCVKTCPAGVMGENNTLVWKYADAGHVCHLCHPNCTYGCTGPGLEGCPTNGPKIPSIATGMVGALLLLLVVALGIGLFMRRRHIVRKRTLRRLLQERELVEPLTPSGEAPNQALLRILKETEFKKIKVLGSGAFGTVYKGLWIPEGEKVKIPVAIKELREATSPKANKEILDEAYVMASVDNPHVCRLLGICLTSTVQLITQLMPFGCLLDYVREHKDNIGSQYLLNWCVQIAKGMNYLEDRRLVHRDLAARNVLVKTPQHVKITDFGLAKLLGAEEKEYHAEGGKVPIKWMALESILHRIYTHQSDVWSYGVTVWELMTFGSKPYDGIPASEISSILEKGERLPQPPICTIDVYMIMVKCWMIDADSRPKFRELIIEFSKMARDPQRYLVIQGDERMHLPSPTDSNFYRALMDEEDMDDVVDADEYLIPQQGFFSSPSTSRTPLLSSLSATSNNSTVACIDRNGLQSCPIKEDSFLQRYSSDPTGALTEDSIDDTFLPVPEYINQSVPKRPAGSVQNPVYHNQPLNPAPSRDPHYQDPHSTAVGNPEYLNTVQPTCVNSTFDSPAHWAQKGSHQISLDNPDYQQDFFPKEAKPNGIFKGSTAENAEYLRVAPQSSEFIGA

Row | SMILES | IC50 [9] [nM] | IC50 [1] [µM] | IC50 [2] [µM] | IC50 [3] [µM] | IC50 [4] [µM] | IC50 [5] [µM] | IC50 [6] [µM] | IC50 [7] [µM] | CC: Cell Cycle score [8] | CM: Cell morphology score [8] | CMI: Cell membrane integrity score [8] | GSH: Glutathione score [8] | MMP: Mitochondrial membrane depolarization score [8] | NMI1: Nuclear membrane integrity 1 score [8] | NMI2: Nuclear membrane integrity 2 score [8] | ROS: Reactive superoxide species score [8] | CHI: Cell Health Index [8] | other results
1 | C#Cc1cccc(Nc2ncnc3cc(I)ccc23)c1 [Compound 15] | 2800 | 17 | > 100 | > 100 | > 100 | > 100 | > 100 | > 100 | 0.95 | 1.00 | 1.00 | 0.98 | 0.99 | 0.21 | 0.94 | 1.00 | 0.77 | –
2 | C#Cc1cccc(Nc2ncnc3cc(C(F)(F)F)ccc23)c1 [Compound 16] | > 20000 | 12 | 15 | 8 | 31 | 7.5 | 63 | 18 | 0.92 | 1.00 | 0.87 | 0.79 | 1.00 | 0.6 | 0.93 | 1.00 | 0.78 | –
3 | C#Cc1cccc(Nc2ncnc3cc(C#N)ccc23)c1 [Compound 17] | > 20000 | 65 | > 100 | > 100 | > 100 | > 100 | > 100 | > 100 | 0.25 | 0.43 | 0.052 | 0.04 | 0.10 | 0.37 | 0.10 | 0.41 | 0.45 | –
4 | C#Cc1cccc(Nc2ncnc3cc4c(cc23)OCCO4)c1 [Compound 21] | 1900 | 8.8 | > 100 | > 100 | 64 | > 100 | > 100 | > 100 | 0.77 | 0.053 | 0.91 | 0.39 | 0.91 | 0.73 | 0.83 | 0.85 | 0.56 | –
5 | C#Cc1cccc(Nc2c(C#N)cnc3cc(I)ccc23)c1 [Compound 32] | 2700 | > 100 | > 100 | > 100 | > 100 | > 100 | > 100 | > 100 | 0.95 | 1.00 | 1.00 | 0.98 | 0.99 | 0.95 | 0.94 | 0.99 | 0.81 | Cell Health Toxcity Profile CC (DyeCycle Violet) [8, 10]: 0.95; Cell Health Toxcity Profile CM (Cell morphology) [8, 10]: 1.00; Cell Health Toxcity Profile CMI (Cell membrane integrity) [8, 10]: 1.00; Cell Health Toxcity Profile GSH (Glutathione) [8, 10]: 0.98; Cell Health Toxcity Profile MMP (Mitochondrial membrane depolarization) [8, 10]: 0.99; Cell Health Toxcity Profile NMI1 (Nuclear membrane integrity 1) [8, 10]: 0.95; Cell Health Toxcity Profile NMI2 (Nuclear membrane integrity 2) [8, 10]: 0.94; Cell Health Toxcity Profile ROS (Reactive superoxide species) [8, 10]: 0.99; Cell Health Toxcity Profile CHI ([8]; SYSTEMETRIC Cell Health Screen, classifier output, assay n=2): 0.81
6 | C#Cc1ccc(F)c(Nc2ncnc3ccc(I)cc23)c1 [Compound 34] | 760 | 27 | > 100 | > 100 | > 100 | > 100 | > 100 | > 100 | 0.25 | 0.025 | 0.014 | 0.044 | 0.030 | 0.17 | 0.078 | 0.074 | 0.18 | –
7 | C#Cc1cccc(Nc2ccnc3ccc(I)cc23)c1F [Compound 35] | 1900 | 8.9 | > 100 | > 100 | > 100 | > 100 | > 100 | 85 | 0.12 | 0.0052 | 0.78 | 0.16 | 0.47 | 0.62 | 0.62 | 0.46 | 0.37 | –
8 | C#Cc1cccc(Nc2ccnc3cc(I)ccc23)c1F [Compound 39] | 1700 | 2.4 | 15 | 40 | 62 | 33 | 49 | 40 | 0.64 | 0.98 | 0.30 | 0.92 | 0.60 | 0.15 | 0.75 | 0.99 | 0.43 | –

Continued, in another order:

Row | IC50 [9] [nM] | SMILES | IC50 [1] [µM] | IC50 [2] [µM] | IC50 [3] [µM] | IC50 [4] [µM] | IC50 [5] [µM] | IC50 [6] [µM] | IC50 [7] [µM] | CC: Cell Cycle score [8] | CM: Cell morphology score [8] | CMI: Cell membrane integrity score [8] | GSH: Glutathione score [8] | MMP: Mitochondrial membrane depolarization score [8] | NMI1: Nuclear membrane integrity 1 score [8] | NMI2: Nuclear membrane integrity 2 score [8] | ROS: Reactive superoxide species score [8] | CHI: Cell Health Index [8] | other results
9 | 2700 | C#Cc1cc(Nc2ncnc3ccc(I)cc23)ccc1F [Compound 36] | 2.7 | > 100 | > 100 | > 100 | > 100 | > 100 | > 100 | 0.038 | 0.011 | 0.31 | 0.068 | 0.13 | 0.24 | 0.048 | 0.35 | 0.27 | –
10 | 2000 | C#Cc1cc(Nc2ncnc3ccc(I)cc23)ccc1Cl [Compound 37] | 31 | 5 | > 100 | > 100 | > 100 | > 100 | > 100 | 0.080 | 0.26 | 0.54 | 0.18 | 0.24 | 0.41 | 0.33 | 0.91 | 0.33 | –
11 | 5200 | C#Cc1ccc(F)c(Nc2ncnc3cc(I)ccc23)c1 [Compound 38] | 15 | > 100 | > 100 | > 100 | > 100 | > 100 | > 100 | 0.98 | 1.00 | 1.00 | 1.00 | 0.96 | 0.99 | 1.00 | 1.00 | 0.88 | –
12 | 3600 | C#Cc1cc(Nc2ncnc3cc(I)ccc23)ccc1F [Compound 40] | > 100 | > 100 | 50 | > 100 | > 100 | > 100 | > 100 | 0.28 | 0.049 | 0.26 | 0.033 | 0.59 | 0.46 | 0.33 | 0.34 | 0.38 | U-CH1 IC50 [1]: no activity; U-CH2 IC50 [2]: no activity
